Data: patent US20190389865A1, “SUBSTITUTED PYRROLO[1,2-a]TRIAZINES AND RELATED COMPOUNDS AND THEIR USE IN THE TREATMENT OF MEDICAL DISORDERS” (Lysosomal Therapeutics Inc., priority 2016, published 2019)
≈ marks a conversion by molar mass, not a printed value.

Assays:
[1] = target: T1, glucocerebrosidase (Gcase) (Homo sapiens, UniProt P04062); test: Glucocerebrosidase (Gcase) activation assay, 4-methylumbelliferyl-beta-D-glucopyranoside substrate, fluorescence; type: biochemical; conditions: 10 nM GCase, 100 nM saposin C, pH 4.7; for activation at 0.1 µM: 0.1 μM test compound, read-out: Percent Gcase Activation, 0.1 μM Test Compound; for activation at 1 µM: 1 μM test compound, read-out: Percent Gcase Activation, 1 μM Test Compound
T1 sequence (P04062 40-536): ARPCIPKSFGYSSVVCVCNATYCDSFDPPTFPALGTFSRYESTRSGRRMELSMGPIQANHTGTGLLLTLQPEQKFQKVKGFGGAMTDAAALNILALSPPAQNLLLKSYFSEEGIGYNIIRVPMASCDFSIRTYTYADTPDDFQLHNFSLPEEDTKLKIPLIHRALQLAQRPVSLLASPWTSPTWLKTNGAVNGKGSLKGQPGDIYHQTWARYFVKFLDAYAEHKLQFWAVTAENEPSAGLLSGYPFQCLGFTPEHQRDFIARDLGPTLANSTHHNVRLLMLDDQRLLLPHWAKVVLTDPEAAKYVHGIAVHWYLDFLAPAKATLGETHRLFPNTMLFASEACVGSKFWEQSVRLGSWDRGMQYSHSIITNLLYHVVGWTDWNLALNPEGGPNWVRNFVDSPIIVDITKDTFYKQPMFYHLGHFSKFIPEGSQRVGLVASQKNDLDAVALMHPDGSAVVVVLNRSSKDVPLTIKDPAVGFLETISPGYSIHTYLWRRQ
Protocol: The ability of exemplary compounds to activate glucocerebrosidase (Gcase) was measured.
A 484 μL aliquot of a 1.0 mg/mL solution of phosphatidylserine (PS) (Sigma P7769) in chloroform was evaporated under a stream of nitrogen for 1 hour. The lipid film was dissolved over 4 minutes of vigorous vortexing in 40 mL of 176 mM K2HPO4/50 mM citric acid (pH 4.7) containing 7.5 μL of triton X-100, resulting in a mixed micellar preparation with a composition of 0.32 mM triton and 0.37 mol % PS. 4-Methylumbelliferyl-beta-D-glucopyranoside (ACROS-337025000) was dissolved in the micellar solution to a final concentration of 2 mM for use as the reaction substrate.
Test compounds were diluted to the desired concentrations with dimethylsulfoxide (DMSO) from 10 mM stocks, and 0.41 μL of the DMSO compound mixture was added to 100 μL of micellar solution containing 10 nM GCase and 100 nM saposin C (Enzo ALX-201-262-C050). Pre-incubation was allowed to occur for 30 minutes at room temperature, after which the reaction was initiated by combining 25 μL of substrate solution with 25 μL of compound/GCase/saposin mixture. The reaction proceeded for 15 minutes at room temperature and was stopped by adding 150 μL of 1M glycine, pH 12.5. The endpoint of the reaction was monitored by measuring fluorescence intensity (excitation: 365 nm; emission: 440 nm) on a SpectraMax i3 instrument (Molecular Devices). […]

[2] = Compound solubility in water; type: physicochemical

Row | Compound | activation at 0.1 µM [1] | activation at 1 µM [1] | solubility [2]
1 | CCC(NC(=O)c1cccc2c(C)nc(C)nc12)c1ccccc1 (stereo not drawn) [2,4-Dimethyl-N-(1-phenylpropyl)quinazoline-8-carboxamide] | < 5% | 5 to 20% | 8.7 µg/mL (≈ 27.2 µM)
2 | Cc1nc(C)n2ccc(C(=O)NC3(C)CCCc4ccccc43)c2n1 (stereo not drawn) [2,4-Dimethyl-N-(1-methyl-1,2,3,4-tetrahydronaphthalen-1-yl)pyrrolo[1,2-a][1,3,5]triazine-8-carboxamide] | 5 to 20% | > 20% | 5.1 µg/mL (≈ 15.3 µM)
3 | Cc1nc(-c2ccc(F)cc2)nc2c(C(=O)NC(C3CC3)C(F)(F)F)ccn12 (stereo not drawn) [N-(1-Cyclopropyl-2,2,2-trifluoroethyl)-2-(4-fluorophenyl)-4-methylpyrrolo[1,2-a][1,3,5]triazine-8-carboxamide] | > 20% | > 20% | 0.1 µg/mL (≈ 0.255 µM)
4 | Cc1nc(-c2cccc(C#N)c2)nc2c(C(=O)NC(C3CC3)C(F)(F)F)ccn12 (stereo not drawn) [2-(3-Cyanophenyl)-N-(1-cyclopropyl-2,2,2-trifluoroethyl)-4-methylpyrrolo[1,2-a][1,3,5]triazine-8-carboxamide] | > 20% | > 20% | 0.6 µg/mL (≈ 1.5 µM)
5 | C#Cc1ccc(NC(=O)c2cccc3c(C)nc(C)nc23)cc1 [N-(4-Ethynylphenyl)-2,4-dimethylquinazoline-8-carboxamide] | < 5% | < 5% | 0.7 µg/mL (≈ 2.32 µM)
6 | CCCCCO[C@H]1CC[C@H](NC(=O)c2cccc3c(C)nc(C)nc23)CC1 [2,4-Dimethyl-N-((1R,4R)-4-(pentyloxy)cyclohexyl)quinazoline-8-carboxamide] | < 5% | 5 to 20% | 7.6 µg/mL (≈ 20.6 µM)
7 | Cc1nc(C)n2ccc(C(=O)Nc3ccc4c(c3)CCC4)c2n1 [N-(2,3-Dihydro-1H-inden-5-yl)-2,4-dimethylpyrrolo[1,2-a][1,3,5]triazine-8-carboxamide] | < 5% | > 20% | 1.2 µg/mL (≈ 3.92 µM)
8 | Cc1nc(C)n2ccc(C(=O)NC(C)(C)C3CC3)c2n1 [N-(2-Cyclopropylpropan-2-yl)-2,4-dimethylpyrrolo[2-a][1,3,5]triazine-8-carboxamide] | < 5% | 5 to 20% | 38.4 µg/mL (≈ 141 µM)
9 | COc1cc(-c2nc(C)n3ccc(C(=O)NC(C)C(F)(F)F)c3n2)ccc1F (stereo not drawn) [2-(4-Fluoro-3-methoxyphenyl)-4-methyl-N-(1,1,1-trifluoropropan-2-yl)pyrrolo[1,2-a][1,3,5]triazine-8-carboxamide] | > 20% | > 20% | 1 µg/mL (≈ 2.52 µM)
10 | Cc1nc(-c2ccc(F)cc2)nc2c(C(=O)NC(C)(C)C3CC3)ccn12 [N-(2-Cyclopropylpropan-2-yl)-2-(4-fluorophenyl)-4-methylpyrrolo[1,2-a][1,3,5]triazine-8-carboxamide] | < 5% | > 20% | 0.5 µg/mL (≈ 1.42 µM)
11 | CCC(NC(=O)c1ccn2c(C)nc(C)nc12)c1ccccc1 (stereo not drawn) [2,4-Dimethyl-N-(1-phenylpropyl)pyrrolo[1,2-a][1,3,5]triazine-8-carboxamide] | 5 to 20% | > 20% | 17.4 µg/mL (≈ 56.4 µM)
12 | Cc1nc(-c2cccc(F)c2)nc2c(C(=O)NC(C3CC3)C(F)(F)F)ccn12 (stereo not drawn) [N-(1-Cyclopropyl-2,2,2-trifluoroethyl)-2-(3-fluorophenyl)-4-methylpyrrolo[1,2-a][1,3,5]triazine-8-carboxamide] | > 20% | > 20% | 0.2 µg/mL (≈ 0.51 µM)
13 | C#Cc1ccc(NC(=O)c2ccn3c(C)nc(C)nc23)cc1 [N-(4-Ethynylphenyl)-2,4-dimethylpyrrolo[1,2-a][1,3,5]triazine-8-carboxamide] | < 5% | > 20% | 1.8 µg/mL (≈ 6.2 µM)
14 | Cc1nc(C)n2ccc(C(=O)NC(C3CC3)C(F)(F)F)c2n1 (stereo not drawn) [N-(1-Cyclopropyl-2,2,2-trifluoroethyl)-2,4-dimethylpyrrolo[1,2-a][1,3,5]triazine-8-carboxamide] | 5 to 20% | > 20% | 28.2 µg/mL (≈ 90.3 µM)
15 | Cc1nc(C)c2cccc(C(=O)NC3CCCc4ccccc43)c2n1 (stereo not drawn) [2,4-Dimethyl-N-(1,2,3,4-tetrahydronaphthalen-1-yl)quinazoline-8-carboxamide] | < 5% | 5 to 20% | 5 µg/mL (≈ 15.1 µM)
16 | Cc1nc(C)c2cccc(C(=O)Nc3ccc4c(c3)CCC4)c2n1 [N-(2,3-Dihydro-1H-inden-5-yl)-2,4-dimethylquinazoline-8-carboxamide] | < 5% | 5 to 20% | 0.5 µg/mL (≈ 1.58 µM)
17 | CCCCCO[C@H]1CC[C@H](NC(=O)c2ccn3c(C)nc(C)nc23)CC1 [2,4-Dimethyl-N-((1S,4S)-4-(pentyloxy)cyclohexyl) pyrrolo[1,2-a][1,3,5]triazine-8-carboxamide] | 5 to 20% | > 20% | 12.5 µg/mL (≈ 35 µM)
18 | Cc1nc(-c2cccc(C(N)=O)c2)nc2c(C(=O)NC(C3CC3)C(F)(F)F)ccn12 (stereo not drawn) [2-(3-Carbamoylphenyl)-N-(1-cyclopropyl-2,2,2-trifluoroethyl)-4-methylpyrrolo[1,2-a][1,3,5]triazine-8-carboxamide] | > 20% | > 20% | 1.9 µg/mL (≈ 4.55 µM)
